For the test, the system named is SARS-CoV-2-NLuc in A549-hACE2 cells. Put plainly: microbe, parasite or virus in culture. The note with it: Severe acute respiratory syndrome coronavirus 2, 48 h; read-out: MPro EC50. The format is cell-based.

Where only a bound is given, the exact number is not on record here.

On to `COc1ccc(Cl)c(-c2ccc3c(=O)n(C4CCCNC(=O)C4)c(=O)[nH]c3c2)c1` (stereo not shown) [Example 27, 7-(2-chloro-5-methoxyphenyl)-3-(2-oxoazepan-4-yl)quinazoline-2,4(1H,3H)-dione], for which the EC50 was 646 nM. As for `COc1cc(-c2cc3c(s2)c(=O)n([C@@H]2CCCNC(=O)C2)c(=O)n3CCC(=O)N(C)C)c(Cl)cc1F` [Example 40, (R)-3-(6-(2-chloro-4-fluoro-5-methoxyphenyl)-2,4-dioxo-3-(2-oxoazepan-4-yl)-3,4-dihydrothieno[3,2-d]pyrimidin-1(2H)-yl)-N,N-dimethylpropanamide], the figure is 137 nM. On to `COc1cnc(Cl)c(-c2cc3[nH]c(=O)n(C4CCNC(=O)C4)c(=O)c3s2)c1` (stereo not shown) [Example 15, 6-(2-chloro-5-methoxypyridin-3-yl)-3-(2-oxopiperidin-4-yl)thieno[3,2-d]pyrimidine-2,4(1H,3H)-dione], for which the 50% effective concentration (EC50) was 18600 nM. As for `Cn1cc(-c2cccc(Cl)c2-c2cc3[nH]c(=O)n(C4CCNC(=O)C4)c(=O)c3s2)c(C(F)(F)F)n1` (stereo not shown) [Example 12, 6-(2-chloro-6-(1-methyl-3-(trifluoromethyl)-1H-pyrazol-4-yl)phenyl)-3-(2-oxopiperidin-4-yl)thieno[3,2-d]pyrimidine-2,4(1H,3H)-dione], the figure is 752 nM; as for `COc1ccc(C#N)c(-c2cc3[nH]c(=O)n(C4CCCNC(=O)C4)c(=O)c3s2)c1` (stereo not shown) [Example 25, 2-(2,4-dioxo-3-(2-oxoazepan-4-yl)-1,2,3,4-tetrahydrothieno[3,2-d]pyrimidin-6-yl)-4-methoxybenzonitrile], 432 nM; as for `COc1cc(-c2cc3c(s2)c(=O)n([C@@H]2CCCNC(=O)C2)c(=O)n3CC#N)c(Cl)cc1F` [Example 34, (R)-2-(6-(2-chloro-4-fluoro-5-methoxyphenyl)-2,4-dioxo-3-(2-oxoazepan-4-yl)-3,4-dihydrothieno[3,2-d]pyrimidin-1(2H)-yl)acetonitrile], 3.03 nM. With `O=C1C[C@@H](n2c(=O)[nH]c3cc(-c4ccccc4Cl)sc3c2=O)CCN1` [Example 5, (S)-6-(2-chlorophenyl)-3-(2-oxopiperidin-4-yl)thieno[3,2-d]pyrimidine-2,4(1H,3H)-dione] the figure was 92.7 nM; with `COc1ccc(C#N)c(-c2cc3[nH]c(=O)n([C@H]4CCNC(=O)C4)c(=O)c3s2)c1` [Example 26, (S)-2-(2,4-dioxo-3-(2-oxopiperidin-4-yl)-1,2,3,4-tetrahydrothieno[3,2-d]pyrimidin-6-yl)-4-methoxybenzonitrile], 2120 nM.

Take `COc1cc(-c2cc3[nH]c(=O)n([C@@H]4CCCNC(=O)C4)c(=O)c3s2)c(C)cc1F` [Example 45, (R)-6-(4-fluoro-5-methoxy-2-methylphenyl)-3-(2-oxoazepan-4-yl)thieno[3,2-d]pyrimidine-2,4(1H,3H)-dione]: the EC50 worked out at 137 nM. With `COc1cc(-c2cc3[nH]c(=O)n(C4CC(=O)NCC(C)(C)C4)c(=O)c3s2)c(Cl)cc1F` (stereo not shown) [Example 55, 6-(2-chloro-4-fluoro-5-methoxyphenyl)-3-(6,6-dimethyl-2-oxoazepan-4-yl)thieno[3,2-d]pyrimidine-2,4(1H,3H)-dione] the figure was 102 nM; with `O=C1CC(n2c(=O)[nH]c3cc(-c4ccccc4Cl)sc3c2=O)CCCN1` (stereo not shown) [Example 8, 6-(2-chlorophenyl)-3-(2-oxoazepan-4-yl)thieno[3,2-d]pyrimidine-2,4(1H,3H)-dione], 61.9 nM.

Turning to `COc1cc(-c2cc3c(s2)c(=O)n([C@H]2CCCNC(=O)C2)c(=O)n3C)c(Cl)cc1F` [Example 33, (S)-6-(2-chloro-4-fluoro-5-methoxyphenyl)-1-methyl-3-(2-oxoazepan-4-yl)thieno[3,2-d]pyrimidine-2,4(1H,3H)-dione], the EC50 was 747 nM. As for `Cc1cc(-c2cccc(Cl)c2-c2cc3[nH]c(=O)n(C4CCNC(=O)C4)c(=O)c3s2)cnn1` (stereo not shown) [Example 10, 6-(2-chloro-6-(6-methylpyridazin-4-yl)phenyl)-3-(2-oxopiperidin-4-yl)thieno[3,2-d]pyrimidine-2,4(1H,3H)-dione], the figure is 5500 nM; as for `N#CCCn1c(=O)n([C@@H]2CCCNC(=O)C2)c(=O)c2sc(-c3ccccc3Cl)cc21` [Example 51, (R)-3-(6-(2-chlorophenyl)-2,4-dioxo-3-(2-oxoazepan-4-yl)-3,4-dihydrothieno[3,2-d]pyrimidin-1(2H)-yl)propanenitrile], 98 nM; as for `COc1cc(-c2cc3[nH]c(=O)n([C@@H]4CC(=O)NC[C@H](C)C4)c(=O)c3s2)c(Cl)cc1F` (single isomer, unassigned) [Example 54], 20.4 nM.

In the case of `COc1cc(-c2cc3[nH]c(=O)n([C@H]4CCCNC(=O)C4)c(=O)c3s2)c(Cl)cc1F` [Example 31, (S)-6-(2-chloro-4-fluoro-5-methoxyphenyl)-3-(2-oxoazepan-4-yl)thieno[3,2-d]pyrimidine-2,4(1H,3H)-dione], the EC50 was 51.2 nM. With `Cc1cc(-c2cccc(Cl)c2-c2cc3[nH]c(=O)n(C4CCNC(=O)C4)c(=O)c3s2)cn2ncnc12` (stereo not shown) [Example 11, 6-(2-chloro-6-(8-methyl-[1,2,4]triazolo[1,5-a]pyridin-6-yl)phenyl)-3-(2-oxopiperidin-4-yl)thieno[3,2-d]pyrimidine-2,4(1H,3H)-dione] the figure was 1210 nM; with `COc1cc(-c2cc3[nH]c(=O)n([C@@H]4CC(=O)NC[C@@H](C)C4)c(=O)c3s2)c(Cl)cc1F` (single isomer, unassigned) [Example 53], 34 nM; with `COc1cc(-c2cc3[nH]c(=O)n([C@@H]4CCCNC(=O)C4)c(=O)c3s2)c(Cl)cc1F` [Example 30, (R)-6-(2-chloro-4-fluoro-5-methoxyphenyl)-3-(2-oxoazepan-4-yl)thieno[3,2-d]pyrimidine-2,4(1H,3H)-dione], 7.73 nM. With `COc1cnc(Cl)c(-c2cc3c(s2)c(=O)n([C@@H]2CCCNC(=O)C2)c(=O)n3CCC#N)c1` [Example 50, (R)-3-(6-(2-chloro-5-methoxypyridin-3-yl)-2,4-dioxo-3-(2-oxoazepan-4-yl)-3,4-dihydrothieno[3,2-d]pyrimidin-1(2H)-yl)propanenitrile] the figure was > 1000 nM; with `COc1cc(-c2cc3c(s2)c(=O)n([C@@H]2CCCNC(=O)C2)c(=O)n3Cc2ncn(C)n2)c(Cl)cc1F` [Example 41, (R)-6-(2-chloro-4-fluoro-5-methoxyphenyl)-1-((1-methyl-11H-1,2,4-triazol-3-yl)methyl)-3-(2-oxoazepan-4-yl)thieno[3,2-d]pyrimidine-2,4(1H,3H)-dione], 358 nM; with `N#CCCn1c(=O)n([C@@H]2CCCNC(=O)C2)c(=O)c2sc(-c3ccccc3C#N)cc21` [Example 52, (R)-2-(1-(2-cyanoethyl)-2,4-dioxo-3-(2-oxoazepan-4-yl)-1,2,3,4-tetrahydrothieno[3,2-d]pyrimidin-6-yl)benzonitrile], 619 nM.

On to `O=C1CC(n2c(=O)[nH]c3cc(-c4c(Cl)cccc4-c4ccc5c(c4)OC(F)(F)O5)sc3c2=O)CCN1` (stereo not shown) [Example 13, 6-(2-chloro-6-(2,2-difluorobenzo[d][1,3]dioxol-5-yl)phenyl)-3-(2-oxopiperidin-4-yl)thieno[3,2-d]pyrimidine-2,4(1H,3H)-dione], for which the half-maximal effective concentration (EC50) worked out at 157 nM. For the molecule `O=C1CC(n2c(=O)[nH]c3cc(-c4ccccc4Cl)ccc3c2=O)CCCN1` (stereo not shown) [Example 9, 7-(2-chlorophenyl)-3-(2-oxoazepan-4-yl)quinazoline-2,4(1H,3H)-dione], the EC50 worked out at 4850 nM. With `COc1cc(-c2cc3c(s2)c(=O)n([C@H]2CCCNC(=O)C2)c(=O)n3CC#N)c(Cl)cc1F` [Example 35, (S)-2-(6-(2-chloro-4-fluoro-5-methoxyphenyl)-2,4-dioxo-3-(2-oxoazepan-4-yl)-3,4-dihydrothieno[3,2-d]pyrimidin-1(2H)-yl)acetonitrile] the figure was 84.6 nM.

(Values after patent US20250276979A1, “SARS-COV2 MAIN PROTEASE INHIBITORS” (Gilead Sciences, Inc., priority 2024, published 2025).)
